Assay [1] relates to Enterobacter cloacae BAA-2341 (KPC). Put plainly: In vitro antibacterial activity, agar dilution MIC. It counts as cell-based. Particulars: BAA2341; Table 2; BAA-2341 Enterobacter cloacae, KPC; read-out: MIC. An excerpt: (§1) Experimental strains: all experimental standard bacterial strains for enzyme production were purchased from ATCC, and the clinically separated CRE strain was purchased from Southwest Hospital of the Third Military Medical University.
(§2) Experimental Method: Agar dilution method, referring to M100-S23: Performance Standards for Antimicrobial Susceptibility Testing: Twenty-Third Informational Supplement (Clinical And Laboratory Standards Institute, 2013). Minimal inhibitory concentration (MIC, μg/mL) was calculated.

Assay [2] relates to Enterobacter hormaechei BAA-2082 (KPC). The assay can be described thus: In vitro antibacterial activity, agar dilution MIC. It counts as cell-based. Particulars: BAA2082; Table 2; BAA-2082 Enterobacter hormaechei, KPC; read-out: MIC.
Source text: as §1, §2

Assay [3] concerns Escherichia coli BAA-2452 (NDM-1). The assay can be described thus: In vitro antibacterial activity, agar dilution MIC. It counts as cell-based. To be noted: BAA2452, Table 2, BAA-2452 Escherichia coli, NDM-1, read-out: MIC.
Source text: as §1, §2

Assay [4] has as its system Escherichia coli BAA-2523 (OXA-48). Put plainly: In vitro antibacterial activity, agar dilution MIC. It counts as cell-based. To be noted: BAA2523, Table 2, BAA-2523 Escherichia coli, OXA-48, read-out: MIC.
Source text: as §1, §2

Assay [5] has as its system Klebsiella oxytoca ATCC-51983 (SHV-5). The assay can be described thus: In vitro antibacterial activity, agar dilution MIC. The format is cell-based. To be noted: ATCC51983; Table 2; ATCC-51983 Klebsiella oxytoca, SHV-5; read-out: MIC.
Source text: as §1, §2

In assay [6] the test system is Klebsiella pneumoniae BAA-1900 (KPC). Put plainly: In vitro antibacterial activity, agar dilution MIC. The format is cell-based. Particulars: BAA1900, Table 2, BAA-1900 Klebsiella pneumoniae, KPC, read-out: MIC.
Source text: as §1, §2

In assay [7] the test system is Klebsiella pneumoniae BAA-2146 (NDM-1). The assay can be described thus: In vitro antibacterial activity, agar dilution MIC. The format is cell-based. Particulars: BAA2146, Table 2, BAA-2146 Klebsiella pneumoniae, NDM-1, read-out: MIC.
Source text: as §1, §2

Assay [8] has as its system Klebsiella pneumoniae BAA-2524 (OXA-48). Put plainly: In vitro antibacterial activity, agar dilution MIC. The format is cell-based. To be noted: BAA2524; Table 2; BAA-2524 Klebsiella pneumoniae, OXA-48; read-out: MIC.
Source text: as §1, §2

For assay [9], the system named is Citrobacter freundii 7520cfr-167 (NDM, OXA-10, ESBLs). Put plainly: In vitro antibacterial activity on clinically separated CRE strain, agar dilution MIC. To be noted: Table 3, 7520cfr-167 Citrobacter freundii. It counts as cell-based.
Source text: as §1, §2

For assay [10], the system named is Citrobacter freundii 7521cfr-169 (NDM, ESBLs, AmpC). The assay is described as above. It counts as cell-based. Particulars: Table 3, 7521cfr-169 Citrobacter freundii.
Source text: as §1, §2

The subject of assay [11] is Enterobacter cloacae 7494ecl-295 (NDM, ESBLs, AmpC). Described as above. To be noted: Table 3, 7494ecl-295 Enterobacter cloacae. The format is cell-based.
Source text: as §1, §2

The subject of assay [12] is Enterobacter cloacae 7495ecl-296 (IMP, ESBLs, AmpC). Described as above. The format is cell-based. Particulars: Table 3, 7495ecl-296 Enterobacter cloacae.
Source text: as §1, §2

The subject of assay [13] is Enterobacter cloacae 7498ecl-299 (ESBLs, AmpC). The assay is described as above. It counts as cell-based. Particulars: Table 3, 7498ecl-299 Enterobacter cloacae.
Source text: as §1, §2

In assay [14] the test system is Enterobacter cloacae 7513ecl-314 (AmpC). The description is as above. The format is cell-based. Particulars: Table 3, 7513ecl-314 Enterobacter cloacae.
Source text: as §1, §2

For assay [15], the system named is Escherichia coli 7438eco-639 (NDM, ESBLs). Described as above. To be noted: Table 3, 7438eco-639 Escherichia coli. It counts as cell-based.
Source text: as §1, §2

Assay [16] relates to Klebsiella pneumoniae 7450kpn-597 (KPC, ESBLs). The description is as above. It counts as cell-based. Particulars: Table 3, 7450kpn-597 Klebsiella pneumoniae.
Source text: as §1, §2

For assay [17], the system named is Klebsiella pneumoniae 7463kpn-610 (ESBLs). The description is as above. It counts as cell-based. To be noted: Table 3, 7463kpn-610 Klebsiella pneumoniae.
Source text: as §1, §2

In assay [18] the test system is Klebsiella pneumoniae 7484kpn-631 (IMP, ESBLs). Described as above. Particulars: Table 3, 7484kpn-631 Klebsiella pneumoniae. It counts as cell-based.
Source text: as §1, §2

The target of another assay is T1, AmpC (UniProt P05364).
T1 construct: The concentration of purchased β-lactamases mother liquor was 1 mg/mL, and the mother liquor was dissolved in 50% glycerol
Put plainly: β-lactamase inhibition, Nitrocefin hydrolysis. The format is biochemical. To be noted: read-out: IC50 AmpC; Experiment 2; enzyme 1.6 nM, Nitrocefin 0.1 mM. As to the method:
(§3) Nitrocefin, a kind of cephalosporin antibiotics, is sensitive to most of β-lactamases, and changes in color after being hydrolyzed. The hydrolysis rate of Nitrocefin was measured by real-time recording corresponding absorbance of reaction system. β-Lactamase inhibitors could inhibit hydrolysis of the enzymes to Nitrocefin, and reduce hydrolysis rate. By measuring reaction rates in the same reaction system under different inhibitor concentrations, the IC50 (half maximal inhibitory concentration) values of inhibitors were calculated.
(§4) Nitrocefin was dissolved in DMSO to form a solution with concentration of 2 mM, which was sub-packaged and stored at −20° C. The concentration of purchased β-lactamases mother liquor was 1 mg/mL, and the mother liquor was dissolved in 50% glycerol. A part of mother liquor was taken and diluted by 1000 times in reaction solution, sub-packaged and stored at ˜20° C.
(§5) The compounds to be tested were dissolved in DMSO to form a mother liquor with concentration of 10 mM. If not used that day, the mother liquor was stored at −20° C. Its test final concentrations were: 100 μM, 25 μM, 6.25 μM, 1.563 μM, 390.6 nM, 97.66 nM, 24.41 nM, 6.10 nM, 1.53 nM, 0.381 nM, 0.095 nM.

A further assay has as its target T2, CTX-M-1 (Escherichia coli, UniProt P28585).
T2 construct: purchased
Put plainly: β-lactamase inhibition, Nitrocefin hydrolysis. Particulars: Experiment 2; enzyme 0.2 nM, Nitrocefin 0.1 mM. It counts as biochemical. The method, then:
as §3, §4, §5

In the next assay the target is T3, KPC-2 (Klebsiella pneumoniae, UniProt Q9F663).
T3 construct: purchased
T3 sequence (Q9F663 25-293, looked up, species assumed): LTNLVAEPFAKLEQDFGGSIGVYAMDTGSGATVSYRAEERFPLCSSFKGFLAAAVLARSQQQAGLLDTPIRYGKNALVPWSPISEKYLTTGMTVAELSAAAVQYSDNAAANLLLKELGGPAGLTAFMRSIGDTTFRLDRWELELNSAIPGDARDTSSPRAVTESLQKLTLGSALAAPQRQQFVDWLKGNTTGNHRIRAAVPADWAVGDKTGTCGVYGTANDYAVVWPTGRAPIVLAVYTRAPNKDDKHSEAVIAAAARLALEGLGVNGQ
The assay can be described thus: β-lactamase inhibition, Nitrocefin hydrolysis. The format is biochemical. Particulars: Experiment 2; enzyme 1.28 nM, Nitrocefin 0.1 mM; read-out: IC50 KPC-2. As to the method: as §3, §4, §5

A further assay addresses T4, TEM-1 (Escherichia coli, UniProt P62593).
T4 construct: purchased
Put plainly: β-lactamase inhibition, Nitrocefin hydrolysis. The format is biochemical. To be noted: Experiment 2; enzyme 1 nM, Nitrocefin 0.1 mM; read-out: IC50 TEM-1. The method, then:
as §3, §4, §5

The structures appear in SMILES notation. Structures can show the parent of a compound that is named as a salt.

T2 sequence (P28585 29-291): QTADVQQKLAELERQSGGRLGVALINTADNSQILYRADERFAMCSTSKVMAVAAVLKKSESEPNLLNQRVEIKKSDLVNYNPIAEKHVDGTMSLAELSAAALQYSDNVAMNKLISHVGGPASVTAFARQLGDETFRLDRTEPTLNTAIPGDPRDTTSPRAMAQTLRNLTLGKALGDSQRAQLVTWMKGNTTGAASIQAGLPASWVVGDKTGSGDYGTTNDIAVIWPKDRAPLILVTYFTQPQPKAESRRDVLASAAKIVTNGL
T4 sequence (P62593 24-286 limits assumed): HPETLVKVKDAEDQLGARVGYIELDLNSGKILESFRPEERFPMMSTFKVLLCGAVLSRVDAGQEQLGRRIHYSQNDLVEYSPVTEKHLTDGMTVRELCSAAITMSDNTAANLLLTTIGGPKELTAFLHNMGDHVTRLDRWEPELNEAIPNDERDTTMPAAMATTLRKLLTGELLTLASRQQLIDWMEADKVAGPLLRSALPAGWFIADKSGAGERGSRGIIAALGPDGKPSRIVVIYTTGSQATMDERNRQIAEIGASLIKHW

As to `CN1CC2(CC(NC(=O)[C@@H]3CC[C@@H]4CN3C(=O)N4OS(=O)(=O)O)C2)C1` [Compound 6, sodium (2S,5R)-2-((2-methyl-2-azaspiro[3.3]heptan-6-yl)carbamoyl)-7-oxo-1,6-diazabicyclo[3.2.1]octan-6-yl hydrogen sulfate], the MIC came to 2 µg/mL in [1]; 2 µg/mL in assay [2]; 2 µg/mL in assay [3]; 1 µg/mL in assay [4]; 4 µg/mL in assay [5]; 2 µg/mL in [6]. For the same compound, the MIC in assay [7] came to 4 µg/mL; in [8], 2 µg/mL; in [9] it was 2 µg/mL; in assay [10] it was 2 µg/mL; in assay [11], 2 µg/mL; in assay [12], 2 µg/mL. Further, the MIC in [13] was found to be 2 µg/mL; in assay [14] it was 2 µg/mL; in assay [15], 2 µg/mL; in assay [16] it was 2 µg/mL; in assay [17], 2 µg/mL; in assay [18], 4 µg/mL. The IC50 is 17.7 nM at AmpC, 40.8 nM on CTX-M-1, 42.3 nM at KPC-2 and 30.1 nM on TEM-1.

The record behind these values is patent publication US10167283B2, “β-lactamase inhibitors and uses thereof” (priority 2015, dated 2019).
